Results published in US9416181B2, “Compositions for cell culture and methods of using the same” (AbbVie Inc., priority 2013, dated 2016).

Columns and labels:
[1] = system: recombinant CHO cell lines; assay: Harvest titer / productivity summary across bioflavonoid supplemented cultures; type: cell-based, Chinese Hamster
Procedure: (§1) Four different recombinant Chinese Hamster Ovary (CHO) cell lines expressing four different recombinant glycoproteins were evaluated in either shaker flask culture, or 3 L laboratory scale bioreactors. Cell Line 1 was genetically engineered to express Antibody 1, Cell Line 2 was genetically engineered to express Antibody 2, Cell Line 3 was genetically engineered to express dual variable domain immunoglobulin 1 (DVD1) and Cell Line 4 was genetically engineered to express dual variable domain immunoglobulin 2 (DVD2).
Protein A Affinity Chromatography-Antibody titers were measured from crude cell culture harvests on a Poros ATM (Life Technologies, Carlsbad, Calif.) affinity column using an HPLC system operating with a low pH, step elution gradient with detection at 280 nm. Absolute concentrations were assigned with respect to reference standard calibration curves.

[2] = system: Cell Line 2 (CHO) expressing Antibody 2; assay: Acidic species variants (WCX-10) of Antibody 2, Cell Line 2 lab-scale bioreactor culture; type: cell-based, Chinese Hamster; conditions: 0.1 g/L
Procedure: as §1
Charge Heterogeneity via Weak Cation Exchange Chromatography-Samples were analyzed using an HPLC system equipped with a ProPac WCX-10 analytical column (Thermo Scientific, Sunnyvale, Calif.). Approximately 100 μg of sample was loaded in 6% Buffer B (10 mM sodium phosphate, 500 mM NaCl, pH 5.5) and 94% Buffer A (10 mM sodium phosphate, pH 7.5). The column was run at a flow rate of 1.0 mL/min. The protein was eluted from the column by increasing the buffer B composition from 6% to 16% over 20 minutes. The protein peaks were measured using UV absorbance at 280 nm as the peaks eluted from the column. The column was regenerated using 100% buffer B followed be a re-equilibration period using initial condition before the injection of the next sample. […]

[3] = system: Cell Line 3 (CHO) expressing DVD1; assay: Cell culture performance, Cell Line 3 shake flask culture; conditions: shaker
[4] = system: Cell Line 1 (CHO) expressing Antibody 1; assay: Acidic species variants (WCX-10) of Antibody 1, Cell Line 1 shake flask fed-batch culture; type: cell-based, Chinese Hamster; conditions: shaker; for reduction of total acidic species content, absolute value: vs unsupplemented control
Procedure: A recombinant Chinese Hamster Ovary (CHO) cell line (Cell Line 1) expressing a humanized monoclonal antibody (Antibody 1) was evaluated in 2 different cultures vessels (shaker flasks and 3 L laboratory-scale bioreactors). The cell line was of CHO DUX-B11 origin based on a DHFR (dihydrofolate reductase) expression system and cultured in a chemically defined basal media, and fed periodically with a chemically-defined feed media (CDFM). The media utilized throughout all of the experiments were chemically-defined, and both animal-component free, and protein-free. Each of the respective media were supplemented as needed with selected bioflavonoids to evaluate for their potential impact on the resulting acidic species profile. In preparation of the cultures, the cell lines were serially expanded through separate seed train inoculums to generate enough cells for inoculation. Process conditions utilized during the cultures were slightly different depending on the culture scale, but similar within each scale to the respective non-bioflavonoid supplemented control conditions. All bioflavonoids utilized were purchased from Sigma-Aldrich (St. Louis, Mo.).
Samples were analyzed using an HPLC system equipped with a ProPac WCX-10 analytical column (Thermo Scientific, Sunnyvale, Calif.). Approximately 100 μg of sample was loaded in 6% Buffer B (10 mM sodium phosphate, 500 mM NaCl, pH 5.5) and 94% Buffer A (10 mM sodium phosphate, pH 7.5). The column was run at a flow rate of 1.0 mL/min. The protein was eluted from the column by increasing the buffer B composition from 6% to 16% over 20 minutes. The protein peaks were measured using UV absorbance at 280 nm as the peaks eluted from the column. The column was regenerated using 100% buffer B followed be a re-equilibration period using initial condition before the injection of the next sample. Peaks eluting before the main peak were termed “acidic peaks” and peaks eluting after the main peak were called “basic peaks” (FIG. 2).
In this Example, EGCG was added into the feed (cell culture medium) at the concentration range of 5 mg/L (low), 20 mg/L (mid) and 50 mg/L (high) in a shaker experiment to determine the impact of EGCG on product quality of a humanized monoclonal antibody (Antibody 1). Detailed cell culture conditions are as described in Table 1.
However, it was not clear whether or not additional bioflavonoids would also have the same effects. To evaluate the impact of alternative bioflavonoids, fed-batch shake flask cultures were initiated with CDFM supplemented with 3 different concentrations of genistein, rutin, and naringin, in addition to EGCG. Cell growth, viability, as well as titers and acidic species variants were measured.
Charge Heterogeneity via Weak Cation Exchange Chromatography-Samples were analyzed using an HPLC system equipped with a ProPac WCX-10 analytical column (Thermo Scientific, Sunnyvale, Calif.). Approximately 100 μg of sample was loaded in 6% Buffer B (10 mM sodium phosphate, 500 mM NaCl, pH 5.5) and 94% Buffer A (10 mM sodium phosphate, pH 7.5). The column was run at a flow rate of 1.0 mL/min. The protein was eluted from the column by increasing the buffer B composition from 6% to 16% over 20 minutes. The protein peaks were measured using UV absorbance at 280 nm as the peaks eluted from the column. The column was regenerated using 100% buffer B followed be a re-equilibration period using initial condition before the injection of the next sample. Peaks eluting before the main peak were termed ‘acidic peaks’ and peaks eluting after the main peak were called ‘basic peaks’ (FIG. 2).
To evaluate the impact of other bioflavonoids, fed-batch shake flask cultures were initiated with CDFM supplemented with multiple concentrations of rutin. Cell growth, viability, as well as titers and acidic species variants were measured and shown in FIGS. 14 and 15, respectively.

SMILES: O=C(O[C@@H]1Cc2c(O)cc(O)cc2O[C@@H]1c1cc(O)c(O)c(O)c1)c1cc(O)c(O)c(O)c1 [EGCG, epigallocatechin gallate]
- drop in harvest titer ([1]; concentrations up to 0.1 g/L, supplemented cultures overall): at most 8%
- recombinant protein productivity ([1]; supplementation up to 0.2 g/L): only nominally impacted
- relative reduction of total acidic variants content vs unsupplemented control [2]: 29%-36%
- growth profile, viability and productivity vs control ([3]; 0.02, 0.05 and 0.1 g/L in feed): performed very similarly to control cultures
- viability decrease compared to control ([3]; 0.2 g/L in feed): 15%
- reduction of total acidic species content, relative value ([4]; 5 mg/L in feed): 5%
- reduction of total acidic species content, absolute value ([4]; 5 mg/L in feed): 1%
- reduction of total acidic species content, relative value ([4]; 20 mg/L in feed): 10%
- reduction of total acidic species content, absolute value ([4]; 20 mg/L in feed): 2%
- reduction of total acidic species content, relative value ([4]; 50 mg/L in feed): 35%
- reduction of total acidic species content, absolute value ([4]; 50 mg/L in feed): 7%
